Results taken from article PMC12459614 (European journal of medicinal chemistry, 2025).
One block for each compound: values may come before it.

Experiments:
GPR17 = details: cited from earlier work
hGPR17L [1] = target: T1, hGPR17L (Homo sapiens, UniProt Q13304); assay: Calcium mobilization assay; format: cell-based; details: for antagonist activity at GPR17: data not shown; for Emax: 1321-N1, read-out: % Efficacy Avg ± SEM
hGPR17L [2] = target: T1, hGPR17L; assay: cAMP signaling in GLUTag cells expressing hGPR17L; format: cell-based; details: for attenuation of MDL-mediated inhibition of forskolin-stimulated cAMP: 10 μM compound, 100 nM MDL, 10 μM forskolin
hGPR17L [3] = target: T1, hGPR17L; assay: GLP-1 secretion assay in GLUTag cells expressing hGPR17L; format: cell-based; details: 6.3 μM MDL; for attenuation of MDL-mediated inhibition of GLP-1 secretion: 10 μM compound, 10 μM forskolin and 10 μM IBMX
hP2RY1 = hP2RY1 (Homo sapiens, UniProt P47900); assay: Calcium mobilization, Neuro-2a cells transiently transfected with hP2RY1; format: cell-based; details: 10 μM compound (300 μM MRS2179); 8 nM 2MeSADP
Chain of hP2RY1 (P47900 whole entry): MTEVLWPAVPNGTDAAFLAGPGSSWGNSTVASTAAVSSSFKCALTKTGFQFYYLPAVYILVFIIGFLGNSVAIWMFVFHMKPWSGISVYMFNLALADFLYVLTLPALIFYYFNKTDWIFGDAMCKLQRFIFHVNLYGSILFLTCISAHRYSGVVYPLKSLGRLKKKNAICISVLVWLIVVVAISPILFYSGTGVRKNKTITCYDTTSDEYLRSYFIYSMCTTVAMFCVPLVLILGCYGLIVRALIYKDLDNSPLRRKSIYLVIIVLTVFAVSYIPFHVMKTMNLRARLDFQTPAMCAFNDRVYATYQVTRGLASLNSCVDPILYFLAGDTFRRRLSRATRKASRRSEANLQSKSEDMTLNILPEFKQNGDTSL

hCysLTR1 = target: T2, hCysLTR1 (Homo sapiens, UniProt Q9Y271); assay: Calcium mobilization, Neuro-2a cells transiently transfected with hCysLTR1; format: cell-based; details: 10 μM compound; 50 nM LTD4
T2 sequence (Q9Y271 1-337): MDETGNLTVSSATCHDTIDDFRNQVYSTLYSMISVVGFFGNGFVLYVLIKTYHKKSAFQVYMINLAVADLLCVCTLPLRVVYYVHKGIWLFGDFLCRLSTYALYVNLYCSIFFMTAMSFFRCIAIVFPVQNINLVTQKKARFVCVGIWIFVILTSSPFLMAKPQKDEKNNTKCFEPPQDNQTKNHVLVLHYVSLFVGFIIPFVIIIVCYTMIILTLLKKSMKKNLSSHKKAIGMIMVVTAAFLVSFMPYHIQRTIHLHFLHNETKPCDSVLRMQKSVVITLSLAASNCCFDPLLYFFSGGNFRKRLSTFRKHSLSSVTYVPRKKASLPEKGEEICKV

GHSR1a = GHSR1a (Homo sapiens, UniProt Q92847); assay: PathHunter U2OS GHSR1a β-arrestin counter assay; format: cell-based; details: dose response
Chain of GHSR1a (Q92847 whole entry): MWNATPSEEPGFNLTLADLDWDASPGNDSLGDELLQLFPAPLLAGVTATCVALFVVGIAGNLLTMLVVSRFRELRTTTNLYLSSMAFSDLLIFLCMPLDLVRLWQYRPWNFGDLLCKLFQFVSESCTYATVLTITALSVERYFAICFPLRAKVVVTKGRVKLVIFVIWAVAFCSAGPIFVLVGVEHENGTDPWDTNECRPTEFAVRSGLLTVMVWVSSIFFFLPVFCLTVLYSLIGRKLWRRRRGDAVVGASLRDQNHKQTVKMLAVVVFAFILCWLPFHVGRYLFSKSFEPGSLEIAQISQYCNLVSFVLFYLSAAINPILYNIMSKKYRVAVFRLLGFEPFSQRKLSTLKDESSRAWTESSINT

hGPR17 = hGPR17 (Homo sapiens, UniProt Q13304); assay: Cisbio HTRF β-arrestin recruitment assay, Schild analysis; format: cell-based; details: Table 1
Chain of hGPR17 (Q13304 whole entry): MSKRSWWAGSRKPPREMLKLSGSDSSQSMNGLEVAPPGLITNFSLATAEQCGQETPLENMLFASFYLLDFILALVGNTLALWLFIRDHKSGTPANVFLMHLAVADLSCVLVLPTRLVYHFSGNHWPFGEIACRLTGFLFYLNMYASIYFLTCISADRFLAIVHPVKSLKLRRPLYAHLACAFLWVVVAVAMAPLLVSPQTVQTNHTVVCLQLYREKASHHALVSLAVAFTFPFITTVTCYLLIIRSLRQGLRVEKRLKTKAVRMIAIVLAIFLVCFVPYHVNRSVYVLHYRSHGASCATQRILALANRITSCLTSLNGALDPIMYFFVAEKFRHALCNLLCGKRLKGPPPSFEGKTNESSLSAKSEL

FGFR1 = FGFR1 (Homo sapiens, UniProt P11362); assay: PathHunter U2OS FGFR1 functional counter assay; format: cell-based; details: dose response
Chain of FGFR1 (P11362 22-822): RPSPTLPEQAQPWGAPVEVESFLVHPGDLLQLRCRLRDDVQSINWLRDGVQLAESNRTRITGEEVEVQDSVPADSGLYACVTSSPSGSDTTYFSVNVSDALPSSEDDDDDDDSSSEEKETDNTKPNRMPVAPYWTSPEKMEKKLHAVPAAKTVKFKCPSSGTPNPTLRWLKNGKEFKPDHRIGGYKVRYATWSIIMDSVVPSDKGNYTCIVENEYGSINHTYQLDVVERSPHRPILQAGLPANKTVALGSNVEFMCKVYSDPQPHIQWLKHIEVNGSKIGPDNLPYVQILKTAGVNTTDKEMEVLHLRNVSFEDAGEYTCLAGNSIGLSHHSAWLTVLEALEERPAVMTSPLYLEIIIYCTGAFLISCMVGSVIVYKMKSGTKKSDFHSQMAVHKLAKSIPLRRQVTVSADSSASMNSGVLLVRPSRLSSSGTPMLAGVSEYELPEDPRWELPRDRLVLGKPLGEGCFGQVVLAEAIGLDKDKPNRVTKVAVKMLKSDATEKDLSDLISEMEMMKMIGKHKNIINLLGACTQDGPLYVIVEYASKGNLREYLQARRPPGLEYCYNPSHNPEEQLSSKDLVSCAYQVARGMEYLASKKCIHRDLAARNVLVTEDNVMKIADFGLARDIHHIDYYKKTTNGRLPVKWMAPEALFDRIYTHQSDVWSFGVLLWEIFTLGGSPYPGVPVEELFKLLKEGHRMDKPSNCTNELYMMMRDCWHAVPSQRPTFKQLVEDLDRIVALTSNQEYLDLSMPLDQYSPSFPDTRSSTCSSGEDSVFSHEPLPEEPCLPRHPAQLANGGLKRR

hGPR17L [4] = target: T1, hGPR17L; assay: cAMP accumulation HTRF assay
hCysLTR2 = target: T3, hCysLTR2 (Homo sapiens, UniProt Q9NS75); assay: Calcium mobilization, Neuro-2a cells transiently transfected with hCysLTR2; format: cell-based; details: 10 μM compound; 50 nM LTD4
T3 sequence (Q9NS75 1-346): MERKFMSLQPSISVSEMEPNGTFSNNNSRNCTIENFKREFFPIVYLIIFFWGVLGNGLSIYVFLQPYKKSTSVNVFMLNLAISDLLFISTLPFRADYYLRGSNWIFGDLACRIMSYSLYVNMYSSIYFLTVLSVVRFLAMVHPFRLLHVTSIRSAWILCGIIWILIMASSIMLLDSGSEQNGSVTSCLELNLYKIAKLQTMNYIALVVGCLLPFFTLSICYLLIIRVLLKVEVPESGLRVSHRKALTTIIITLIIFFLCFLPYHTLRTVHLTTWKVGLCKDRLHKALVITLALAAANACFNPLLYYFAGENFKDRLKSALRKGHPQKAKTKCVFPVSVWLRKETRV

GPR17 (long isoform) = GPR17 (long isoform) (Homo sapiens, UniProt Q13304); assay: PathHunter GPR17 β-arrestin recruitment assay; format: cell-based; details: IC50 (antagonist mode), assay development; stimulated with 2 μM MDL (~EC80)
Chain of GPR17 (long isoform) (Q13304 whole entry, canonical isoform): as the sequence (Q13304 whole entry) above

[5] = target: N-methyl-D-aspartate (NMDA) receptors, glycine binding site; details: cited from earlier work

T1 sequence (Q13304 whole entry): as above

antagonist activity at GPR17 (hGPR17L [1]; calcium mobilization assay): full antagonist activity
Compound: O=C(O)c1ccc(OCCCc2ccc(OCCCCOc3ccccc3)cc2)c(C(=O)NC2CCCC(C(=O)O)C2)c1 (stereo not shown) [BayCysLT2, reference compound]
block of MDL-stimulated receptor activation of GPR17 (GPR17): completely

antagonist activity at GPR17 (hGPR17L [1]; calcium mobilization assay): partial antagonist activity
Compound: CC(C)(O)c1ccccc1CC[C@@H](SCC1(CC(=O)O)CC1)c1cccc(/C=C/c2ccc3ccc(Cl)cc3n2)c1 [montelukast, reference compound]
block of MDL-stimulated receptor activation of GPR17 (GPR17): partially

attenuation of MDL-mediated inhibition of forskolin-stimulated cAMP (hGPR17L [2]): significantly attenuated | attenuation of MDL-mediated inhibition of GLP-1 secretion (hGPR17L [3]): significantly attenuated | activity in GHSR1a β-arrestin counter assay (GHSR1a): no activity | β-arrestin Schild Slope (95% CI) (hGPR17): 1.13 (0.96 – 1.30) | Emax (hGPR17L [1]): 109 ± 3.38% | IC50 (hGPR17L [1]; Calcium Assay IC50(μM) Avg ± SEM, Table 2, reported only when efficacy ≥75%): 5.47 ± 0.3 µM | activity in FGFR1 functional counter assay (FGFR1): no activity
Compound: COc1ccc(C(=O)NC2CCCc3c2[nH]c2c(Cl)cccc32)cc1OC (stereo not shown) [Compd 1, N-(8-Chloro-2,3,4,9-tetrahydro-1H-carbazol-1-yl)-3,4-dimethoxybenzamide]

attenuation of MDL-mediated inhibition of forskolin-stimulated cAMP (hGPR17L [2]): significantly attenuated | attenuation of MDL-mediated inhibition of GLP-1 secretion (hGPR17L [3]): significantly attenuated | block of CYSLTR2 activation (hCysLTR2): antagonized | IC50 (GPR17 (long isoform)): 8.2 µM | IC50 (hGPR17L [1]; IC50 (antagonist mode), assay development, stimulated with […] MDL (~EC80)): 8.1 µM | antagonist activity at GPR17 (hGPR17L [1]; calcium mobilization assay): full antagonist activity | IC50 (hGPR17L [4]; IC50 (antagonist mode), assay development, 30 nM MDL (EC80), 1 μM forskolin): 1.5 µM | IC50 (hGPR17L [4]; IC50, cAMP HTRF assay, purified re-purchased/re-synthesized compounds reassessed): 10 µM
Compound: O=C(O)c1ccc(OCCCc2ccc(OCCCCOC3CCCCC3)cc2)c(C(=O)NC2CCCC(C(=O)O)C2)c1 (stereo not shown) [HAMI]
IC50 (GPR17): single digit micromolar range | block of MDL-stimulated receptor activation of GPR17 (GPR17): completely

forskolin-stimulated cAMP after GPR17 activation (hGPR17L [2]; forskolin plus MDL): 3.5 ± 0.18 nM | inhibition of forskolin stimulated cAMP (hGPR17L [2]; forskolin plus MDL): 29 ± 3% | forskolin and IBMX-stimulated GLP-1 secretion after GPR17 activation (hGPR17L [3]): 50.1 ± 4.6 pM | reduction of forskolin and IBMX-stimulated GLP-1 secretion (hGPR17L [3]): 33 ± 8% | EC50 (hGPR17L [1]): 0.28 µM | EC50 (hGPR17L [4]): 0.0019 µM
Compound: O=C(O)CCc1c(C(=O)O)[nH]c2cc(Cl)cc(Cl)c12 [MDL, 3-(2-carboxyethyl)-4,6-dichloro-1H-indole-2-carboxylic acid]
Ki [5]: 0.14 µM

The remaining lines, values behind:

Compound: CSCCNc1nc(SCCC(F)(F)F)nc2c1ncn2[C@@H]1O[C@H](COP(=O)(O)OP(=O)(O)C(Cl)(Cl)P(=O)(O)O)[C@@H](O)[C@H]1O [cangrelor]
block of MDL-stimulated receptor activation (GPR17): failed to block

Compound: CCCSc1nc(N[C@@H]2C[C@H]2c2ccc(F)c(F)c2)c2nnn([C@@H]3C[C@H](OCCO)[C@@H](O)[C@H]3O)c2n1 [ticagrelor]
block of MDL-stimulated receptor activation (GPR17): failed to block

Compound: O=C(O)c1ccc(C(=O)NC2CCCc3c2[nH]c2c(Cl)cccc32)cc1 (stereo not shown) [Compd 15, 4-((8-Chloro-2,3,4,9-tetrahydro-1H-carbazol-1-yl)carbamoyl)benzoic acid]
attenuation of MDL-mediated inhibition of forskolin-stimulated cAMP (hGPR17L [2]): significantly attenuated | attenuation of MDL-mediated inhibition of GLP-1 secretion (hGPR17L [3]): significantly attenuated | Emax (hGPR17L [1]): 49.4 ± 2.45%

Compound: CNc1ncnc2c1ncn2[C@H]1C[C@H](OP(=O)(O)O)[C@@H](COP(=O)(O)O)O1 [MRS2179]
block of P2RY1 activation (hP2RY1): antagonized

Compound: O=C(Nc1cccc2c(=O)cc(-c3nnn[nH]3)oc12)c1ccc(OCCCCc2ccccc2)cc1 [pranlukast]
block of CYSLTR1 activation (hCysLTR1): antagonized | antagonist activity at GPR17 (hGPR17L [1]; calcium mobilization assay): full antagonist activity | block of MDL-stimulated receptor activation of GPR17 (GPR17): completely

Compound: CC(C)[C@@H](O)CC[C@@H](C)[C@H]1CC[C@H]2[C@@H]3CC=C4C[C@@H](O)CC[C@]4(C)[C@H]3CC[C@]12C [24S-HC, 24(S)-hydroxycholesterol, reference compound]
activation of GPR17 or potentiation of MDL (hGPR17L [1]; calcium mobilization assay): not able to confirm | activation of GPR17 or potentiation of MDL (hGPR17L [4]; cAMP accumulation assay): not able to confirm

Compound: COc1cccc(-c2ccccc2-c2ccc(C(=O)Nc3ccc(OC)cc3C(=O)O)o2)c1 [PSB-22269]
potency in a binding assay and functional assays (GPR17): nanomolar range potency
